This note sets out measurements from US20250041307A1, “Uses of Bicyclic Compounds for the Treatment of Diseases” (Athira Pharma, Inc., priority 2021, published 2025).

In series [1] the test system is hepatocyte (HepG2) cell cultures. Description: Cytotoxicity assay (LDH release). Particulars: HepG2 cells, 48 hours, 0.1 to 100 μM. It is filed as cell-based. A digest of the protocol:
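Cells in EMEM+10% FBS treated 48 h at 37° C with compounds at 0.1-100 μM; cerivastatin 0.5 μM served as positive control. LDH released into supernatant measured colorimetrically at 490 nm, range set by untreated and full-lysis controls; >20% above negative control counted as cytotoxic.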

A further series concerns MDCK cells. Description: Cell scattering behavior assay. The class given is cell-based. The settings on record: with 5 ng/mL HGF, 24 hours, normalized particle count compared to HGF treatment alone. A digest of the protocol:
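MDCK cells starved 2 h in serum-free DMEM, then treated 24 h at 37 °C with compounds plus 5 ng/mL HGF. Cells were ethanol-fixed, WGA488-stained and imaged. Scattering was scored as particle count normalized to stained area, with activity taken as a statistical increase in normalized particle count over HGF alone.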

The nature of series [2]: In vitro stability in rat plasma. The class given is in vitro ADME. Particulars: 5 μM, 37° C. The method, then:
(§1) Bioavailability can be estimated by compound stability when exposed to conditions in the body. As an initial assessment of stability properties in a variety of conditions present in animals, exemplary compounds were tested for stability in a battery of simulated body compartments. Compounds were tested for stability in the following solutions: simulated gastric fluid (SGF: 34.2 mM NaCl, pH 1.2), simulated gastric fluid with the digestive enzyme pepsin (SGF+Enzyme: SGF with 3.2 mg/ml pepsin), simulated intestinal fluid with the mixture of enzymes in porcine pancreatin (SIF+Enzyme: 28.7 mM NaH2PO4, 105.7 mM NaCl, pH 6.8, 10 mg/ml pancreatin), rat plasma, and human plasma.
(§2) Test compounds were incubated at a final concentration of 5 μM in the above solutions at 37° C. with samples removed at the following time points: 0, 1, 2, and 4 hours. Reactions were stopped and prepared for quantification by addition of excess quench solution containing an internal standard (acetonitrile, 200 ng/mL bucetin). Test compound and internal standard in each sample was quantified by LC-MS/MS, and after internal normalization to bucetin, test compound concentration was expressed as a percentage of concentration at the 0-hour time point. Stability in the relevant test solution was then determined by the percent remaining at the 4-hour time point.

Series [3] in a line: In vitro stability in human plasma. The settings on record: 5 μM, 37° C. It is filed as in vitro ADME. The method, then: as §1, §2
Series [4] can be described thus: In vivo tissue distribution. Particulars: rat, 10 minutes post administration. On the set-up: species or system Sprague-dawley rats. The method, then:
The rate of distribution to target tissues is an important feature of therapeutic molecules. Tissue distribution of exemplary compounds was performed in mixed-sex Sprague-dawley rats. Test compounds were delivered via tail vein injection (IV) and tissues were collected at Tmax (10 minutes post administration). Animals were deeply anesthetized with isoflurane and whole blood was collected from the right atrium and processed by centrifugation to produce plasma. Animals were then fully perfused with PBS administered to the left ventricle to prevent blood contamination of tissues.
Tissues were collected and homogenized, and compound content in the target tissue was quantified by LC-MS/MS. Tissue distribution rates were determined by dividing the tissue concentration of compound by the plasma concentration and multiplying by 100.

Regarding `CCC(C)CN1CC2N(C(=O)c3ccc(F)cc3)CCC(=O)N2C(C)C1=O` (stereo not drawn) [Compound 11, 1-(4-fluorobenzoyl)-6-methyl-8-(2-methylbutyl)hexahydro-4H-pyrazino[1,2-a]pyrimidine-4,7(6H)-dione], in series [1], the Cytotoxicity entry was “++++ (++++ indicates non-toxic at 100 μM)”. Besides, in the series with MDCK cells, the Potency entry is “++ (++ indicates maximum potency at or above 10 nM)”. For the same compound, the “Rat Plasma, compound remaining after 4 hours” value (from here on “Rat Plasma, compound remaining”) in series [2] is recorded as “++++ (++++ indicates 100% compound remaining after 4 hours)”. For the same compound, in series [3], the “Human Plasma, compound remaining after 4 hours” value (shortened to “Human Plasma, compound remaining”) is reported as “+++ (+++ indicates 80-99% compound remaining after 4 hours)”. In series [4], the “Tissue Distribution (% Plasma exposure at 10 min post IV dose) Brain” value is “++ (++ indicates distribution between 5 and 39%)”; the “Tissue Distribution (% Plasma exposure at 10 min post IV dose) Cerebellum” value is “+ (+ indicates distribution between 0.05 and 5%)”; the “Tissue Distribution (% Plasma exposure at 10 min post IV dose) Cortex” value is “+ (+ indicates distribution between 0.05 and 5%)”; the “Tissue Distribution (% Plasma exposure at 10 min post IV dose) Hippocampus” value was “+ (+ indicates distribution between 0.05 and 5%)”. Also, in series [4], the “Tissue Distribution (% Plasma exposure at 10 min post IV dose) Sciatic Nerve” value was “++ (++ indicates distribution between 5 and 39%)”.

As to `C=CCCN1CC2N(C(=O)c3ccc(C(F)(F)F)cc3)CCC(=O)N2C(C)C1=O` (stereo not drawn) [Compound 22], the Cytotoxicity entry in series [1] was “++++ (++++ indicates non-toxic at 100 μM)”. In addition, the Potency entry with MDCK cells was “++ (++ indicates maximum potency at or above 10 nM)”. Moreover, the “Rat Plasma, compound remaining” value in series [2] is reported as “+++ (+++ indicates 80-99% compound remaining after 4 hours)”. In addition, the “Human Plasma, compound remaining” value in series [3] was “+++ (+++ indicates 80-99% compound remaining after 4 hours)”. Moreover, in series [4], the “Tissue Distribution (% Plasma exposure at 10 min post IV dose) Brain” value was “++ (++ indicates distribution between 5 and 39%)”; the “Tissue Distribution (% Plasma exposure at 10 min post IV dose) Cerebellum” value is “++ (++ indicates distribution between 5 and 39%)”; the “Tissue Distribution (% Plasma exposure at 10 min post IV dose) Cortex” value was “++ (++ indicates distribution between 5 and 39%)”; the “Tissue Distribution (% Plasma exposure at 10 min post IV dose) Hippocampus” value is “++ (++ indicates distribution between 5 and 39%)”. Also, the “Tissue Distribution (% Plasma exposure at 10 min post IV dose) Sciatic Nerve” value in series [4] is “+++ (+++ indicates distribution between 40 and 69%)”.

`CC1C(=O)N(CCC2CCC2)CC2N(C(=O)c3ccc(C(F)(F)F)cc3)CCC(=O)N12` (stereo not drawn) [Compound 20]: the Cytotoxicity result in series [1] is on record as “++++ (++++ indicates non-toxic at 100 μM)”. The Potency entry in the series on MDCK cells was “+++ (+++ indicates maximum potency at or above 1 nM)”. Besides, in series [2], the “Rat Plasma, compound remaining” value is “++ (++ indicates 40-79% compound remaining after 4 hours)”. The “Human Plasma, compound remaining” value in series [3] is given as “+++ (+++ indicates 80-99% compound remaining after 4 hours)”. Besides, in series [4], the “Tissue Distribution (% Plasma exposure at 10 min post IV dose) Brain” value was “++++ (++++ indicates distribution above 70%)”; the “Tissue Distribution (% Plasma exposure at 10 min post IV dose) Cerebellum” value is reported as “++++ (++++ indicates distribution above 70%)”; the “Tissue Distribution (% Plasma exposure at 10 min post IV dose) Cortex” value is on record as “++++ (++++ indicates distribution above 70%)”; the “Tissue Distribution (% Plasma exposure at 10 min post IV dose) Hippocampus” value is “+++ (+++ indicates distribution between 40 and 69%)”. The “Tissue Distribution (% Plasma exposure at 10 min post IV dose) Sciatic Nerve” value in series [4] is “++++ (++++ indicates distribution above 70%)”.
